Assay results from US20210260022A1, “SYNERGY FOR INCREASING ENERGY EXPENDITURE AND INSULIN SENSITIVITY” (The Board of Supervisors of Louisiana State University and …, priority 2018, published 2021).
“Also recorded” adds a separate entry of the source. Read-outs that look alike come from different tables or passages of the source.

Key:
human adipocytes = assay: Western blotting of protein levels in treated human adipocytes; format: cell-based
Protocol: Referring to FIG. 2, human adipocyte cultures were treated with naringenin for 0, 3 or 7d. Total protein was isolated and analyzed by Western Blotting. […] TGX SDS-PAGE gels (7.5%TM, BioRad) were used to separate 50 μg of solubilized protein per sample. Following transfer, nitrocellulose membranes were probed overnight at 4° C. with primary monoclonal antibodies against adiponectin, NAMPT, and PPARγ (Santa Cruz), PGC-1α monoclonal (4C1.3, EMDmillipore) and β-Actin (A5316, Sigma). HRP-linked anti-rabbit (12-348, Sigma) and anti-mouse (A[…], Sigma) were used to detect specific antibody-antigen complexes. Proteins were visualized by chemiluminescence (Western Lightning Plus-ECL, PerkinElmer, Waltham, Mass.). Bands were quantified using ImageJ software and values shown are normalized to β-actin.

[1] = Eight-week case study of naringenin 150 mg three times daily in a subject with diabetes; format: in vivo, human
Protocol: A subject was recruited. […] The subject met the inclusion criteria of fasting blood glucose between 126 and 200 mg/dL. They had been prescribed metformin but had discontinued the medication due to gastrointestinal intolerance. Exclusion criteria consisted of known allergy to citrus fruit. The study was approved by the Pennington Biomedical Research Center (PBRC) Institutional Review Board. The participant provided written informed consent. Procedures were in accordance with PBRC's ethical standards. We conducted an eight-week case study. The subject completed three visits to the clinic. Visits were performed in the morning after an overnight fast for at least eight hours where only water was permitted. At the baseline visit, upon arrival, weight and vital signs (blood pressure and heart rate) were measured. […] Blood was collected for a chemistry panel (glucose, insulin, creatinine, potassium, uric acid, albumin, calcium, magnesium, creatine phosphokinase, alanine aminotransferase, alkaline phosphatase, iron, total cholesterol high density lipoprotein cholesterol [HDL-C], low density lipoprotein cholesterol [LDL-C], and triglycerides) and a complete blood count (CBC). Resting metabolic rate (RMR) was measured over five hours at baseline and at the end of eight weeks using the ventilated hood to collect expirated gases. The test required the subject to lie quietly in bed after ingesting a capsule containing 150 mg naringenin. To evaluate the subject's metabolic rate, oxygen consumed and the carbon dioxide given off were measured during the last thirty minutes of each hour. Following the baseline testing, the subject was given 100 capsules each containing 150 mg naringenin with instructions to take one orally three times daily. At weeks two and six, the subject received a phone call from the study coordinator and was asked about their progress and compliance. Changes in medications and adverse events were also evaluated. They were encouraged to comply with the study protocol. At week four, the subject returned to the clinic and their weight, blood pressure, and heart rate were measured. Any remaining capsules were collected and compliance was assessed. Naringenin (100 capsules) for the next four weeks was dispensed. Week eight marked the subject's last visit and involved repeating the baseline testing. At this visit, the subject returned any remaining capsules, and compliance was assessed. Whole sweet oranges (Citrus Sinensis) were subjected to an aqueous and ethanolic extraction process, dried, milled, and provided in a powder form by Green Chem/Gencor Lifestage Solutions (Irvine, Calif.). The quantification of naringenin in the extract, and the safety and pharmacokinetics of the extract in humans are previously described.^15 The extract contained 28% naringenin. Therefore each capsule prepared by the PBRC pharmacist contained 536 mg of the extract.

[2] = cited from earlier work
cytochrome P450 enzymes = details: in vivo studies in humans; cited from earlier work

SMILES: O=C1C[C@@H](c2ccc(O)cc2)Oc2cc(O)cc(O)c21 [naringenin]
- protein levels of UCP1, GLUT4, and ChREBP (human adipocytes; 10 μM naringenin for 7 days): Corresponding increases
- AMPK activation (phospho-AMPK) (human adipocytes; naringenin 0, 3 or 7d): activates AMPK
- loss of body weight ([1]; 150 mg three times a day, in 8 weeks): 2.3%
- reduction in HOMA-IR ([1]; absolute, eight weeks vs baseline): 0.6
- maximal respiratory quotient increase above baseline ([1]; at one hour): 1.2%
- RMR peak above baseline ([1]; at one hour, after eight weeks): 3.5%
- triglycerides after eight weeks ([1]; baseline 53 mg/dL): 70 mg/day
- HOMA-IR at the end of the study ([1]; baseline 3.4): 2.8
- Low density lipoprotein cholesterol decrease ([1]; calculated with the Friedewald equation): 10.3 mg/dL
- adverse events ([1]; eight weeks): No adverse events were reported
- blood safety markers ([1]; eight weeks): within their reference ranges; also recorded: no clinically significant changes
- change in respiratory quotient ([1]; eight weeks): no change; also recorded: did not change
- HOMA-IR reduction ([1]; eight weeks vs baseline): 17.6%
- change in glucose ([1]; eight weeks vs baseline): not clinically significant
- triglycerides increase ([1]; eight weeks vs baseline 53 mg/dL): 32%
- loss of body weight at the 6 month plateau ([1]; extrapolated from 8 weeks): 4.6%
- Body weight decrease ([1]; over eight weeks, vs baseline): 2.3 kg
- serum concentrations of naringenin ([2]; after orange juice and fruit): < 1 μm
- presence in serum ([2]; lowest dose of 150 mg): present in serum at concentrations sufficient to elicit a physiologic response
- physiologically attainable concentration ([2]; pharmacokinetic studies in humans): 10 μM
- adverse events ([2]; single ascending dose trial of whole orange extract): no adverse events were observed at any dose
- inhibition of cytochrome P450 enzymes (cytochrome P450 enzymes): not the main inhibitory compound in grapefruit
